Assays:
[1] = target: T1, KimA (Bacillus subtilis, UniProt P96589); assay: differential scanning fluorometry (CPM dye); assay type: binding; settings: three-fold molar excess c-di-AMP over KimA; KimA purified from cells co-producing CdaA, in DDM; shift fits 48.1 °C (KimA without CdaA) to 54.7 °C; text calls it a further increase although the CdaA sa
T1 construct: full-length membrane protein, homodimer with swapped cytosolic domains; plasmid pB24KimA, expressed in E. coli LB2003
T1 sequence (P96589 1-607): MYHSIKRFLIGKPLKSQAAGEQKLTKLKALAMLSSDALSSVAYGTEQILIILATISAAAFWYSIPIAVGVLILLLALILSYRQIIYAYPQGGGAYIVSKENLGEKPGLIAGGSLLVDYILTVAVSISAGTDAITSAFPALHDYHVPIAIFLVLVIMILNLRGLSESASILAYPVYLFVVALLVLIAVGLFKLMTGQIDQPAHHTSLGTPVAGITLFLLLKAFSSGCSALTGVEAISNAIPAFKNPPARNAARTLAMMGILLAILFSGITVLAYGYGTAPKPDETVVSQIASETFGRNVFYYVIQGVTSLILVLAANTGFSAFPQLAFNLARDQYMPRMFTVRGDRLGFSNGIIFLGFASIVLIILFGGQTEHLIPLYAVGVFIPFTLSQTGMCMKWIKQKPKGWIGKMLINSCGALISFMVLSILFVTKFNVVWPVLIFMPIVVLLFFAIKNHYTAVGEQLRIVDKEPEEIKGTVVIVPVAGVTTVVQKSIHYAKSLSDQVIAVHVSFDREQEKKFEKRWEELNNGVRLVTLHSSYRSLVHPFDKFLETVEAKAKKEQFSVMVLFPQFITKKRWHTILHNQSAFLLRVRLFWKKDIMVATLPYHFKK

[2] = target: T2, KimA (Bacillus subtilis, UniProt P96589, R337A); assay: whole-cell K+ uptake in E. coli LB2003 (flame AAS); assay type: cell-based; settings: c-di-AMP made in the cells by co-expressed CdaA (concentration unknown) versus inactive CdaA D171N; 200 mM HEPES TEA pH 7.5; allosteric site in cytosolic domain
T2 construct: full-length membrane protein, homodimer with swapped cytosolic domains; plasmid pB24KimA, expressed in E. coli LB2003

[3] = target: T3, KimA (Bacillus subtilis, UniProt P96589, N237A); assay: differential scanning fluorometry (CPM dye); settings: c-di-AMP binding to variant; method inferred from the DSF section
T3 construct: full-length membrane protein, homodimer with swapped cytosolic domains; plasmid pB24KimA, expressed in E. coli LB2003

[4] = target: T1, KimA; assay: cryo-EM structure ([…] Å in DDM, […] Å in amphipols); assay type: binding; settings: two c-di-AMP per dimer, cytosolic domain sites; co-produced with CdaA; ten-fold molar excess added in DDM
[5] = target: T1, KimA; assay: whole-cell K+ uptake in E. coli LB2003 (flame AAS); assay type: cell-based; settings: c-di-AMP made in the cells by co-expressed CdaA (concentration unknown) versus inactive CdaA D171N; 200 mM HEPES TEA pH 7.5; allosteric site in cytosolic domain
[6] = target: the molecule itself; assay: cryo-EM structure; KimA in DDM at 4.0 mg/ml, purified after co-production with CdaA, ten-fold molar excess of c-di-AMP added after purification; 3.3 Å map with C2 symmetry
[7] = target: the molecule itself; assay: cryo-EM structure; KimA reconstituted in amphipols (PMAL C8) at 2.25 mg/ml, purified after co-expression with cdaA; 50 mM NaCl, 50 mM KCl, 20 mM Tris-HCl pH 8; 3.8 Å map with C2 symmetry

T2 sequence (P96589 whole entry R337A, the tested form may be a part): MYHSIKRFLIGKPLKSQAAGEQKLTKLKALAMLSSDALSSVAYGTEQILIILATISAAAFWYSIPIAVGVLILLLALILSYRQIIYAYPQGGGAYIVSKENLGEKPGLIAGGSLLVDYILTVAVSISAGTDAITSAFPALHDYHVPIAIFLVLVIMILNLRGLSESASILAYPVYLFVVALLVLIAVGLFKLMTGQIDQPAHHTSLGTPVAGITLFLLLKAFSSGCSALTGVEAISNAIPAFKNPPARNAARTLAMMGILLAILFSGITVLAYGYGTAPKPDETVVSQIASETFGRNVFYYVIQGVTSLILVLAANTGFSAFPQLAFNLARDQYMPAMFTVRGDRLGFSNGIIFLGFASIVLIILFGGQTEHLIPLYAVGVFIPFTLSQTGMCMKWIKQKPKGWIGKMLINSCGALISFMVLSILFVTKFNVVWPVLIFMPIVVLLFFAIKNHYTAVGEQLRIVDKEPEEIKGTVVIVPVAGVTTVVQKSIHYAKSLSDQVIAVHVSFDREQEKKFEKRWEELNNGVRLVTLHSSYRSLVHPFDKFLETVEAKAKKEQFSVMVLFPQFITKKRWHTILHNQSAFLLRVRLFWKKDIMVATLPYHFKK
T3 sequence (P96589 whole entry N237A, the tested form may be a part): as the sequence (P96589 whole entry R337A, the tested form may be a part) above, with N237A, A337R counted along it

For `Nc1ncnc2c1ncn2[C@@H]1O[C@@H]2COP(=O)(O)O[C@H]3[C@@H](O)[C@H](n4cnc5c(N)ncnc54)O[C@@H]3COP(=O)(O)O[C@H]2[C@H]1O` [c-di-AMP], the dTm [1] was 6.6 °C, the “% reduction of Vmax” value [2] was ~ 44% and the Tm [3] was “while binding of c-di-AMP was still possible”. For the same molecule, the “cryo-EM structure (3.3 Å in DDM, 3.8 Å in amphipols)” value [4] was “two non-protein densities in the CDs, which were modelled as c-di-AMP” and the “% reduction of Vmax” value [5] was ~ 64%.

B1: K+/H+ symporter KimA from B. subtilis, in DDM, with bound c-di-AMP (natural protein)
chain: T1 sequence (P96589 1-607)
notes: KimA, K+/H+ symporter of the KUP family, Bacillus subtilis; expressed from pB24KimA; residues 30-606 are compared in the structures (TMD 30-462, cytosolic domain 462-606); Homodimer with swapped cytosolic domains; A ten-fold molar excess of c-di-AMP was added after purification; The construct has a C-terminal HRV-3C protease site; No cleavage is described for the DDM sample; also called KimA WT; …
B1: binds [6].

B2: K+/H+ symporter KimA from B. subtilis, reconstituted in amphipols, with bound c-di-AMP (natural protein)
chain: T1 sequence (P96589 1-607)
notes: KimA, K+/H+ symporter of the KUP family, Bacillus subtilis; expressed from pB24KimA; released from the Ni-NTA beads by cleavage at the C-terminal HRV-3C protease site; Homodimer with swapped cytosolic domains, upright arrangement of the transmembrane domains; Residues of the 3C site probably remain at the C-terminus after cleavage; also called KimA in amphipols; not shown: His tag (from the …)
B2: binds [7].

Reference: article PMC10284832, “Cyclic di-AMP traps proton-coupled K^+ transporters of the KUP family in an inward-occluded conformation” (Nature Communications, 2023)
